According to patent US8247382B2, “Method for increasing oxytocin release in the epidermis” (Shiseido Company, Ltd., priority 2008, dated 2012):
Structures can show the parent of a compound that is named as a salt.

Experiments:
keratinocytes = conditions: added to keratinocytes; J. Clin. Invest. (1992) 90, 42-51; Biochem. J. (2004) 380, 329-338; cited from earlier work
[1] = system: epidermal keratinocytes of human neonates; experiment: Oxytocin release by differentiated keratinocytes after ATP gamma s addition (ELISA of culture medium); type: cell-based
Description: The keratinocytes used herein were epidermal keratinocytes of human neonates up to a passage number of 4 (Kurabo Industries Ltd.). The culture medium was Defined Keratinocyte-SFM (Invitrogen Japan K.K.). The keratinocytes were grown to confluence in 10-cm dishes at 37° C. for several days with the culture medium replaced on alternate days, and then the calcium chloride concentration in the culture medium was increased to 1.8 mM thereby inducing differentiation. After a lapse of 45 hours, adenosine-5′-(3-thio)triphosphoric acid tetralithium salt (Sigma Co., hereinafter referred to as “ATP gamma s-Li”) was added to each dish so as to make the final concentrations of 0, 10, 30, 100, and 300 μM, and the incubation of culture was continued at 37° C. The culture medium was collected 10 minutes after the addition of ATP gamma s, and the amount of oxytocin was measured with the ELISA method.
Oxytocin in the collected culture medium was purified and concentrated using a reversed phase column (C18 Sep-pak Light, Waters Co.), and eluted with an aqueous solution containing 60% acetonitrile and 0.1% trifluoroacetic acid. More specifically, the column eluate fraction containing oxytocin was freeze-dried, and dissolved again in a small amount of buffer solution (included in the EIA kit), and the oxytocin in the culture medium was concentrated at least 20 fold. Thereafter, the oxytocin concentration in the concentrated oxytocin solution was measured by the competitive ELISA method using Oxytocin EIA Kit (Assay Designs, Inc). The measurement procedure described in the instruction manual attached to the kit was followed. […] The absorbance of the color reaction by alkaline phosphatase was measured, and a semilogarithmic standard curve was generated by plotting the absorbance change due to the competitive inhibition against the known amount of oxytocin. The standard curve was used to determine the amount of oxytocin corresponding to the absorbance of the sample. […]

| SMILES | Ca2+ concentration in the keratinocytes (keratinocytes) | change of oxytocin concentration in the culture media with ATP gamma s concentration ([1]; 0, 10, 30, 100, 300 μM ATP gamma s, 10 minutes, no EGTA) | oxytocin concentration in the culture medium ([1]; 300 μM ATP gamma s, medium collected 10 minutes after addition, 37° C., ELISA) | effect of EGTA on the increase of oxytocin concentration with increases of ATP gamma s ([1]; 2 mM EGTA added 5 minutes before ATP gamma s) |
| --- | --- | --- | --- | --- |
| Nc1ncnc2c1ncn2[C@@H]1O[C@H](COP(=O)(O)OP(=O)(O)OP(=O)(O)O)[C@@H](O)[C@H]1O [ATP] | increase the Ca^2+ concentration in the keratinocytes in a concentration-dependent manner |  |  |  |
| Nc1ncnc2c1ncn2[C@@H]1O[C@H](COP(=O)(O)OP(=O)(O)OP(O)(O)=S)[C@@H](O)[C@H]1O [ATP gamma s, adenosine-5′-(3-thio)triphosphoric acid tetralithium salt] | increase the Ca^2+ concentration in the keratinocytes in a concentration-dependent manner | increased with increases of ATP gamma s | exceeded 7 pg/mL |  |
| O=C(O)CN(CCOCCOCCN(CC(=O)O)CC(=O)O)CC(=O)O [EGTA, ethylene glycol bis(2-aminoethyl ether) tetraacetic acid] |  |  |  | inhibited |
